Laboratory results taken from patent US20190160021A1, “Substituted Stilbenes as Inhibitors of NF-kappaB and Activators of Nrf2” (STC.UNM, priority 2017, published 2019).

test system: Nrf2; test: Nrf2-ARE reporter-HepG2 stable cell line luciferase reporter assay for activators of Nrf2; format: cell-based; conditions: Nrf2-ARE reporter-HepG2 cells, from dose-response curves; read-out: EC50, concentration that produced 50% activation of Nrf2
Procedure: A Nrf2-ARE reporter-HepG2 stable cell line (BPS Bioscience, San Diego, Calif.) is grown in a humidified atmosphere at 37° C. in 5% CO295% air. The cells are maintained in MEM medium with Earles balanced salts and L-glutamine supplemented with 10% fetal bovine serum (FBS), 1 mM sodium pyruvate, 1% non-essential amino acids, 100 units/ml penicillin, 100 μg/ml streptomycin, and 400 μg/ml Geneticin. One day prior to treatment, the Nrf2-ARE cells are plated into 24-well cell culture plates at approximately 30% confluency in the above media without Geneticin. The following day, fresh media with or without substituted trans stilbene or sulforaphane is applied to the cells. DMSO concentrations are kept at 0.1%. The cells are again placed in a humidified atmosphere at 37° C. in 5% CO2/95% air for 5 hours. Plate wells are gently washed with phosphate buffered saline (PBS) pH 7.4 and lysed with 1× passive lysis buffer (Promega, Madison, Wis., USA). The subsequent lysates are analyzed with the Luciferase Assay System (Promega) utilizing a GloMax 20/20 luminometer (Promega, Sunnyvale, Calif., USA). The firefly luciferase relative light units are normalized to protein (mg/ml) with BCATM Protein Assay Kit protein (Pierce, Rockford, Ill., USA)

EC50 [µM]	SMILES
5.4	Oc1ccc(C=Cc2cc(O)cc(O)c2)cc1 [Resveratrol, resveratrol]
1.2	C[S+]([O-])CCCCN=C=S (centres unmarked) [sulforaphane]

same assay, conditions: Nrf2-ARE reporter-HepG2 cells, screened at 15 μM

SMILES	fold activation (extent of activation) of Nrf2 [fold]
COc1cccc(/C=C/c2ccc(C(F)(F)F)cc2)c1OC [trans stilbene 54, (E)-1,2-Dimethoxy-3-(4-(trifluoromethyl)styryl)benzene]	65.5

test system: not given; test: not given; conditions: not given

melting point [°C]	SMILES
34 to 35	COc1ccccc1/C=C/c1ccccc1F [trans stilbene 10, (E)-1-Fluoro-2-(2-methoxystyryl)benzene]
50 to 51	COc1cccc(/C=C/c2ccc(F)cc2)c1OC [trans stilbene 17, (E)-1-(4-Fluorostyryl)-2,3-dimethoxybenzene]
58 to 59	COc1ccc(OC)c(/C=C/c2ccc(F)cc2)c1 [trans stilbene 18, (E)-2-(4-Fluorostyryl)-1,4-dimethoxybenzene]
90 to 92	Cc1ccc(/C=C/c2ccc(F)c(F)c2)cc1 [trans stilbene 22, (E)-1,2-Difluoro-4-(4-methylstyryl)benzene]
109 to 110	COc1ccc(/C=C/c2cc(F)ccc2F)cc1 [trans stilbene 23, (E)-1,4-Difluoro-2-(4-methoxystyryl)benzene]
85 to 86	Fc1ccc(/C=C/c2ccccc2F)cc1F [trans stilbene 24, (E)-1,2-Difluoro-4-(2-fluorostyryl)benzene]
73 to 74	COc1ccc(/C=C/c2ccc(F)c(F)c2)cc1 [trans stilbene 26, (E)-1,2-Difluoro-4-(4-methoxystyryl)benzene]
48 to 49	Fc1cccc(/C=C/c2ccc(F)c(F)c2)c1 [trans stilbene 30, (E)-1,2-Difluoro-4-(3-fluorostyryl)benzene]
73 to 74	Fc1cccc(/C=C/c2cc(F)ccc2F)c1 [trans stilbene 34, (E)-1,4-Difluoro-2-(3-fluorostyryl)benzene]
60 to 61	Fc1cccc(/C=C/c2ccc(F)cc2F)c1 [trans stilbene 35, (E)-2,4-Difluoro-1-(3-fluorostyryl)benzene]
84 to 85	Fc1ccc(/C=C/c2ccccc2F)c(F)c1 [trans stilbene 36, (E)-2,4-Difluoro-1-(2-fluorostyryl)benzene]
72 to 73	Cc1ccc(/C=C/c2ccc(F)cc2F)cc1 [trans stilbene 37, (E)-2,4-Difluoro-1-(4-methylstyryl)benzene]
76 to 77	Fc1ccc(/C=C/c2cc(F)ccc2F)cc1 [trans stilbene 40, (E)-1,4-Difluoro-2-(4-fluorostyryl)benzene]
38 to 40	COc1cccc(/C=C/c2ccc(C)cc2)c1OC [trans stilbene 48, (E)-1,2-Dimethoxy-3-(4-methylstyryl)benzene]
49 to 50	COc1cccc(/C=C/c2ccccc2OC)c1 [trans stilbene 49, (E)-1-Methoxy-2-(3-methoxystyryl)benzene]
48 to 49	COc1cccc(/C=C/c2cc(OC)ccc2OC)c1 [trans stilbene 50, (E)-1,4-Dimethoxy-2-(3-methoxystyryl)benzene]
67 to 69	COc1cccc(/C=C/c2ccc(C(F)(F)F)cc2)c1OC [trans stilbene 54, (E)-1,2-Dimethoxy-3-(4-(trifluoromethyl)styryl)benzene]
